Columns and labels:
[1] = system: Metarhizium robertsii (15013-1); test: Determination of fungicide sensitivity, conidia growth in liquid media; assay type: cell-based; details: 5,000 conidia in 0.5 ml YMA, 26° C., visual observation
Experimental: (§1) Conidia of Metarhizium robertsii (15013-1) and Metarhizium robertsii (23013-3) were produced by growing the fungus on potato dextrose agar plates for 1-2 weeks at 23° C. under continuous illumination from fluorescent lights. Conidia were harvested from the plate in water containing Tween-20 (0.01%) and counted using a hemacytometer. Fungicide sensitivity was determined by mixing 5,000 conidia in 0.5 ml of YMA (2 g yeast extract, 4 g malt extract per liter) liquid media containing varying concentrations of commercially available fungicides active against filamentous fungi in a 24 well plate. Plates were incubated for […] at 26° C. and then growth was assessed by visual observation with a stereomicroscope.

[2] = system: Metarhizium robertsii (23013-3); test: as above; assay type: cell-based; details: 5,000 conidia in 0.5 ml YMA, 26° C., visual observation
Experimental: as §1

| Structure (SMILES) | growth of 15013-1 conidia compared to a control without any fungicide ([1]; Fungicide Concentration 3 uM) | growth of 15013-1 conidia compared to a control without any fungicide ([1]; Fungicide Concentration 10 uM) | growth of 15013-1 conidia compared to a control without any fungicide ([1]; Fungicide Concentration 30 uM) | growth of 23013-3 conidia compared to a control without any fungicide ([2]; Fungicide Concentration 3 uM) | growth of 23013-3 conidia compared to a control without any fungicide ([2]; Fungicide Concentration 10 uM) | growth of 23013-3 conidia compared to a control without any fungicide ([2]; Fungicide Concentration 30 uM) |
| --- | --- | --- | --- | --- | --- | --- |
| CO/C=C(/C(=O)OC)c1ccccc1Oc1cc(Oc2ccccc2C#N)ncn1 [Azoxystrobin] | ++ (growth of about 20% or about 80% inhibition compared to a control without any fungicide) | + (growth of about 10% or about 90% inhibition compared to a control without any fungicide) | − | + (growth of about 10% or about 90% inhibition compared to a control without any fungicide) | − | − |
| N#Cc1c[nH]cc1-c1cccc2c1OC(F)(F)O2 [Fludioxonil] | + (growth of about 10% or about 90% inhibition compared to a control without any fungicide) | + (growth of about 10% or about 90% inhibition compared to a control without any fungicide) | + (growth of about 10% or about 90% inhibition compared to a control without any fungicide) | + (growth of about 10% or about 90% inhibition compared to a control without any fungicide) | + (growth of about 10% or about 90% inhibition compared to a control without any fungicide) | + (growth of about 10% or about 90% inhibition compared to a control without any fungicide) |
| c1ccc2[nH]c(-c3cscn3)nc2c1 [Thiabendazole] | ++++ (growth of about 50% or more compared to a control without any fungicide) | ++++ (growth of about 50% or more compared to a control without any fungicide) | ++++ (growth of about 50% or more compared to a control without any fungicide) | +++ (growth of about 30% or about 70% inhibition compared to a control without any fungicide) | ++++ (growth of about 50% or more compared to a control without any fungicide) | ++++ (growth of about 50% or more compared to a control without any fungicide) |
